Test results from patent US10322110B2, “Imidazole-based antimicrobial agents” (priority 2014, dated 2019).
Converted amounts (≈) assume the structure as drawn.

Columns and labels:
Format in all cases: cell-based
[1] = tested on: Staphylococcus aureus MRSA (COL); test: broth microdilution MIC assay, Staphylococcus aureus MRSA (COL); settings: 24 h; for Antibacterial activity Staphylococcus aureus (MRSA): MIC100 class score, broth microdilution; for MIC: Staphylococcus aureus, MRSA, read-out: Antibacterial activity Staphylococcus aureus (MRSA)
[2] = tested on: Streptococcus pneumoniae (Chester, ATCC49619); test: broth microdilution MIC assay, Streptococcus pneumoniae; settings: MIC100 class score, 24 h
[3] = tested on: Staphylococcus aureus MSSA (Newman); test: broth microdilution MIC assay, Staphylococcus aureus MSSA (Newman); settings: 24 h; for MIC: Staphylococcus aureus, read-out: Antibacterial activity Staphylococcus aureus (MSSA)

| Compound | MIC [3] | MIC [1] | other results |
| --- | --- | --- | --- |
| CCCc1nc(-c2csc(-c3ccccc3C(F)(F)F)c2)[nH]c1C [Compound 113] | – | – | Antibacterial activity Staphylococcus aureus (MRSA) [1]: 3 (MIC100 of 3-10 μg/ml) |
| CCCc1nc(-c2sc(-c3ccccc3C(F)(F)F)c3c2OCCO3)[nH]c1C [Compound 114] | – | – | Antibacterial activity Staphylococcus aureus (MRSA) [1]: 3 (MIC100 of 3-10 μg/ml) |
| COc1cccc(-c2nc(-c3nc(-c4ccccc4)c(C)[nH]3)cs2)c1 [Compound 116] | – | – | Antibacterial activity Streptococcus pneumoniae [2]: 3 (MIC100 of 2-5 μg/ml) |
| Cc1[nH]c(-c2ccc(-c3cccc(F)c3)s2)nc1-c1ccccc1 [Compound 117] | 20 to 50 µg/mL (≈ 59.8 to 150 µM) | – | – |
| Cc1nc(-c2ccc(-c3ccc(O)cc3F)o2)[nH]c1-c1ccc(O)cc1 [Compound 120] | – | – | Antibacterial activity Streptococcus pneumoniae [2]: 3 (MIC100 of 2-5 μg/ml); Antibacterial activity Staphylococcus aureus (MSSA) ([3]; MIC100 class score, broth microdilution): 2 (MIC100 of 11-201 μg/ml) |
| Fc1ccc(-c2ccc(-c3nc4ccccc4[nH]3)o2)cc1 [Compound 121] | – | – | Antibacterial activity Streptococcus pneumoniae [2]: inactive |
| Fc1ccc(-c2ccc(-c3nc4ccccc4[nH]3)o2)c(F)c1 [Compound 122] | – | – | Antibacterial activity Streptococcus pneumoniae [2]: inactive |
| Cc1nc(-c2ccc(-c3cccc4[nH]ccc34)o2)[nH]c1-c1ccccc1 [Compound 138] | – | 11 to 201 µg/mL (≈ 32.4 to 592 µM) | – |
| Cc1nc(-c2ccc(-c3ccc(O)cc3C(F)(F)F)o2)[nH]c1-c1ccccc1 [Compound 139] | 1 to 3 µg/mL (≈ 2.6 to 7.81 µM) | 1 to 3 µg/mL (≈ 2.6 to 7.81 µM) | – |
| Cc1nc(-c2ccc(-c3cc4ccccc4o3)o2)[nH]c1-c1ccccc1 [Compound 140] | – | 11 to 201 µg/mL (≈ 32.3 to 591 µM) | – |
| Cc1nc(-c2ccc(-c3ccc(N4CCN(C)CC4)cc3)o2)[nH]c1-c1ccccc1 [Compound 141] | – | 20 to 50 µg/mL (≈ 50.2 to 125 µM) | – |
| Cc1nc(-c2ccc(-c3cccc(C(F)(F)F)c3)o2)[nH]c1-c1ccccc1 [Compound 142] | 1 to 3 µg/mL (≈ 2.71 to 8.14 µM) | 1 to 3 µg/mL (≈ 2.71 to 8.14 µM) | – |
| Cc1nc(-c2ccc(-c3ccc4[nH]ccc4c3)o2)[nH]c1-c1ccccc1 [Compound 144] | 3 to 10 µg/mL (≈ 8.84 to 29.5 µM) | 3 to 10 µg/mL (≈ 8.84 to 29.5 µM) | – |
| Cc1nc(-c2ccc(-c3cccc(O)c3)o2)[nH]c1-c1ccccc1 [Compound 145] | 11 to 201 µg/mL (≈ 34.8 to 635 µM) | 20 to 50 µg/mL (≈ 63.2 to 158 µM) | – |
| Cc1nc(-c2ccc(-c3cccc(F)c3)o2)[nH]c1-c1ccccc1 [Compound 146] | 3 to 10 µg/mL (≈ 9.42 to 31.4 µM) | 3 to 10 µg/mL (≈ 9.42 to 31.4 µM) | – |
| Cc1nc(-c2ccc(-c3ccc(F)cc3F)o2)[nH]c1-c1ccccc1 [Compound 147] | 1 to 3 µg/mL (≈ 2.97 to 8.92 µM) | 1 to 3 µg/mL (≈ 2.97 to 8.92 µM) | – |
| Cc1nc(-c2ccc(-c3ccc(F)cc3)o2)[nH]c1-c1ccccc1 [Compound 148] | 3 to 10 µg/mL (≈ 9.42 to 31.4 µM) | 3 to 10 µg/mL (≈ 9.42 to 31.4 µM) | – |

| Compound | MIC [3] | MIC [1] | other results |
| --- | --- | --- | --- |
| Cc1nc(-c2ccc(-c3ccccc3O)o2)[nH]c1-c1ccccc1 [Compound 149] | 11 to 201 µg/mL (≈ 34.8 to 635 µM) | 20 to 50 µg/mL (≈ 63.2 to 158 µM) | – |
| Cc1nc(-c2ccc(-c3ccc(O)cc3)o2)[nH]c1-c1ccccc1 [Compound 150] | 11 to 201 µg/mL (≈ 34.8 to 635 µM) | 11 to 201 µg/mL (≈ 34.8 to 635 µM) | – |
| Cc1nc(-c2ccc(-c3ccc4cc[nH]c4c3)o2)[nH]c1-c1ccccc1 [Compound 152] | 3 to 10 µg/mL (≈ 8.84 to 29.5 µM) | 3 to 10 µg/mL (≈ 8.84 to 29.5 µM) | – |
| Cc1nc(-c2ccc(-c3ccc(F)c(F)c3)o2)[nH]c1-c1ccccc1 [Compound 153] | 3 to 10 µg/mL (≈ 8.92 to 29.7 µM) | 3 to 10 µg/mL (≈ 8.92 to 29.7 µM) | – |
| Cc1nc(-c2ccc(-c3ccc4cc(O)ccc4c3)o2)[nH]c1-c1ccccc1 [Compound 154] | 11 to 201 µg/mL (≈ 30 to 549 µM) | 11 to 201 µg/mL (≈ 30 to 549 µM) | – |
| Cc1nc(-c2ccc(-c3ccc(O)c(C(F)(F)F)c3)o2)[nH]c1-c1ccccc1 [Compound 155] | 3 to 10 µg/mL (≈ 7.81 to 26 µM) | 11 to 201 µg/mL (≈ 28.6 to 523 µM) | – |
| Cc1nc(-c2ccc(-c3ccc(O)c(Cl)c3)o2)[nH]c1-c1ccccc1 [Compound 157] | 3 to 10 µg/mL (≈ 8.55 to 28.5 µM) | 11 to 201 µg/mL (≈ 31.4 to 573 µM) | – |
| Cc1nc(-c2ccc(-c3ccc(O)cc3Cl)o2)[nH]c1-c1ccccc1 [Compound 158] | 1 to 3 µg/mL (≈ 2.85 to 8.55 µM) | 1 to 3 µg/mL (≈ 2.85 to 8.55 µM) | – |
| Cc1nc(-c2ccc(-c3ccc4occc4c3)o2)[nH]c1-c1ccccc1 [Compound 159] | 3 to 10 µg/mL (≈ 8.81 to 29.4 µM) | 20 to 50 µg/mL (≈ 58.8 to 147 µM) | – |
| Cc1nc(-c2ccc(-c3cc4ccccc4[nH]3)o2)[nH]c1-c1ccccc1 [Compound 160] | 3 to 10 µg/mL (≈ 8.84 to 29.5 µM) | 11 to 201 µg/mL (≈ 32.4 to 592 µM) | – |
| Cc1nc(-c2ccc(-c3cccc4cc[nH]c34)o2)[nH]c1-c1ccccc1 [Compound 161] | 3 to 10 µg/mL (≈ 8.84 to 29.5 µM) | 1 to 3 µg/mL (≈ 2.95 to 8.84 µM) | – |
| Cc1[nH]c(-c2ccc(-c3ccccc3F)o2)nc1-c1ccccc1 [Compound 162] | 3 to 10 µg/mL (≈ 9.42 to 31.4 µM) | 3 to 10 µg/mL (≈ 9.42 to 31.4 µM) | – |
| Cc1cc(F)ccc1-c1ccc(-c2nc(-c3ccccc3)c(C)[nH]2)o1 [Compound 164] | 3 to 10 µg/mL (≈ 9.03 to 30.1 µM) | – | – |
| Cc1[nH]c(-c2cnn(-c3ccc(F)cc3)c2)nc1-c1ccccc1 [Compound 166] | 20 to 50 µg/mL (≈ 62.8 to 157 µM) | 20 to 50 µg/mL (≈ 62.8 to 157 µM) | – |
| Cc1[nH]c(-c2cnn(-c3ccccc3)c2)nc1-c1ccccc1 [Compound 167] | – | 20 to 50 µg/mL (≈ 66.6 to 166 µM) | – |
| Cc1nc(-c2ccc(-c3ccc(O)cc3F)o2)[nH]c1-c1ccccc1 [Compound 168] | 3 to 10 µg/mL (≈ 8.97 to 29.9 µM) | 3 to 10 µg/mL (≈ 8.97 to 29.9 µM) | – |
